A melting point compilation (Tetko et al.; mined from patent text by program, amines drawn as free bases though some values may be those of a salt)

| SMILES | melting point |
| --- | --- |
| COC(=O)c1sc(OC)c(Cl)c1O | 109 to 111 °C |
| O=C1CNC(=O)N1CCNCc1ccc(CN2CCCCC2)o1 | 133 to 136 °C |
| CN(Cc1cc(C(F)(F)F)cc(C(F)(F)F)c1)C(=O)c1c(-c2ccc(F)cc2)c2ccncc2c(=O)n1C | 179 to 181 °C |
| COC(=O)CCc1ccc(N2CCN(c3ccc(CN)cc3C)C2=O)cc1 | > 275 °C |
| Cc1cc2c(cc1C)[C@@H](O)[C@H](CN1CCC3(CC1)C(=O)NCN3c1ccccc1)CC2 (relative stereo) | 232 to 233 °C |
| Nc1cc(OCC2CC=CCC2)cc(N)n1 (stereo unspecified) | 89 °C |
| O=C1C(=O)c2ccccc2C2=C1SCC1(CCN(CC(O)COCc3ccco3)CC1)O2 (stereo unspecified) | 143 to 145 °C |
| CN(C)Cc1nc(C#N)nn1-c1ccc(Cl)cc1C(=O)c1ccccc1Cl | 117 to 119 °C |
| CC(=O)Oc1ccccc1C1SC[C@@H](C(=O)O)N1C(=O)CCSC(C)=O (stereo partly specified) | 144 to 145 °C |
| CCn1cc(C(=O)O)c(=O)c2cc(F)c(N3C[C@@H](N)[C@@H]3C)cc21 (relative stereo) | 232 to 235 °C |
| Cc1cc(C)c2c(c1)CC2=NNC(N)=S | 230 to 232 °C |
| O=C(c1ccncc1)N1CCN(Cc2ccc3c(c2)-c2[nH]nc(-c4ccsc4)c2C3)CC1 | 168 to 170 °C |
| CC(=NC1CCCCC1)Nc1ccccc1C | 130 to 131 °C |
| COCC(=O)OC1(C(=O)CO)CCC2C3CCC4=CC(=O)CCC4(C)C3C(O)CC21C (stereo unspecified) | 185 °C |
| CN1C(=S)N(c2ccc(C#N)c(C(F)(F)F)c2)C(=O)C1(CF)CF | 122 to 123 °C |
| CC12CCC3c4cccc(N)c4CCC3C1CCC2O (stereo unspecified) | 189 to 192 °C |
| CCCCc1oc2ccc(C#N)cc2c1C(=O)c1ccc(O)cc1 | 152 to 153 °C |
| Cc1nc2ccc(S(=O)(=O)c3cccc4cnccc34)cc2nc1C | 198 to 200 °C |
| CC(C)NC(=O)CC(O)(Cn1cncn1)c1ccc(Cl)cc1Cl (stereo unspecified) | 105 to 107 °C |
| COc1nc(C)cnc1NS(=O)(=O)c1cccnc1-c1ccc(COC(C)C)cc1 | 123 to 124 °C |
| Cc1c(N2CCC(C(N)c3ccccn3)C2)c(F)c(N)c2c(=O)c(C(=O)O)cn(C3CC3F)c12 (stereo unspecified) | 127 to 129 °C |
| CCn1nccc1Nc1cc(OC)ccc1C(=O)O | 130 to 135 °C |
| COc1cc(N)c(Cl)cc1C(=O)NC1CCN(CCCOc2ccc(F)cc2)CC1(F)F (stereo unspecified) | 126 °C |
| Cc1cc(=O)c(C(=O)Nc2ccccc2Cl)c(C)o1 | 206 to 207 °C |
| O=C(O)CCc1cc(Br)c2c(c1)CCO2 | 117 to 118 °C |
| CCn1nc(C2CC2)c(C(=O)O)c1Cc1ccc(-c2ccccc2S(=O)(=O)NC(=O)c2ccccc2)cc1 | 217 °C |

| SMILES | melting point |
| --- | --- |
| COC(=O)c1cc(SC#N)c(N)cc1OC | 184 to 185 °C |
| O=C(NO)C1(NS(=O)(=O)c2ccc(OCc3ccc(Cl)cc3Cl)cc2)CC1c1ccccc1 (stereo unspecified) | 164 to 169 °C |
| O=C(CCCCCN1CCN(c2cccc3c2CCCC3)CC1)N1Cc2ccccc2C1 | 115 °C |
| N#CC(C(=O)Nc1ccccc1)C(=O)c1nn(-c2ccccc2)c2c1Cc1ccccc1-2 (stereo unspecified) | 273 to 277 °C |
| CCOC(=O)c1nn(-c2ccc(Br)cc2)c2c1CCCC2 | 147 °C |
| OCC1OC(n2cnc3c(Nn4cccc4)ncnc32)C(O)C1O (stereo unspecified) | 193 to 195 °C |
| CCCc1c(O)c(O)c(C(=O)O)c2cc(C)c(C)cc12 | 170 to 172 °C |
| COC(=O)Cc1ccc2c(c1)N(C)Cc1ccccc1C2=O | 88.4 to 90.5 °C |
| c1ccc2c(c1)CCc1ccccc1C2=NCC1CC1 | 98 to 99 °C |
| O=c1oc(=O)n(C2CC2)c2cc(F)c(F)cc12 | 138 to 139 °C |
| CN(C)C=Nc1[nH]nc(NCCNC(=O)OC(C)(C)C)c1C#N | 158 to 160 °C |
| COC(CNC(=O)CCl)OC | 33 to 36 °C |
| CC(C)n1cnc2c(N[C@H](CO)c3ccccc3)nc(NC[C@@H](C)O)nc21 | 109 to 112 °C |
| O=C1C=C(Nc2ccccc2F)CCC1 | 116 to 118 °C |
| O=c1[nH]c(=O)n(Cc2ccc(Cl)cc2)c2nc[nH]c12 | 304 to 310 °C |
| CC1(C)OCCN1C(=O)C=Cc1ccccc1 | 107 to 109 °C |
| CCCC(=O)c1cnc2c(CO)cccc2c1Nc1ccccc1C | 148 to 150 °C |
| O=c1[nH]nc2c3c(cccc13)N=CN2 | > 300 °C |
| Cc1ccc(C=CCN2CCc3nc(N)sc3CC2)cn1 | 180 to 184 °C |
| Cn1nc(-c2ccc(OCCCCl)cc2)ccc1=O | 186 to 187 °C |
| CCOc1cc2c(cc1OCC)CCCC(C(=O)N1CCN(C(=O)c3cc(OC)c(OC)c(OC)c3)CC1)=C2 | 183 to 185 °C |
| CN(C)C=C1CC(=O)Nc2ccccc2C1=O | 203 to 205 °C |
| CCCCOCCOc1ccc(-c2ccc(N3CC(C)C(C)C3)c(C=C(C)C(=O)OCC)c2)cc1 (stereo unspecified) | 67 to 69 °C |
| CC1(C)NC(=O)N(c2ccc(Cl)c(C(F)(F)F)c2)C1=N | 148 to 149 °C |
| O=Cc1nn(-c2ccc(O)cc2)c2c1CCCC2Cc1cccc2ccccc12 (stereo unspecified) | > 260 °C |
| CC1(C)CCC(C)(C)c2cc(-c3cc(-c4ccc(C(=O)O)cc4)ccc3CCCO)ccc21 | 203 °C |

| SMILES | melting point |
| --- | --- |
| CCCCC(c1c[nH]cn1)c1cccc(CO)c1O (stereo unspecified) | 93 °C |
| Cc1ccnc(Nc2nc(-c3ccc(OC(F)(F)F)cc3)cs2)c1 | 275 to 282 °C |
| COc1ccc(-c2ocnc2-c2cc(OC)c(Br)c(OC)c2)cc1N | 180 to 184 °C |
| C[C@@](N)(Cc1ccc(-c2cncnc2)cc1)C(=O)Nc1cc(Cl)cc(Cl)c1 | 124 to 126 °C |
| O=C(O)C(O)N1C(=O)CCN1c1ccccc1 (stereo unspecified) | 127 to 129 °C |
| CCc1cc(C(=O)O)c(O)cc1C | 152 to 154 °C |
| COC(=O)c1cc(OC)c(O)cc1-c1c(C(=O)OC)ccc2c1OCO2 | 172 to 173 °C |
| COc1ccc(N2C(=O)[C@@H](OC(C)=O)[C@H]2c2ccccc2)cc1 (relative stereo) | 163 °C |
| CC(=O)Oc1ccc(-c2cnc(NC(=O)Cc3ccccc3)c(Cc3ccccc3)n2)cc1 | 228 to 231 °C |
| CCN(CC)C(=O)COc1nc2cc(OC)cc(OC)c2cc1-c1ccc(OC)cc1 | 146 to 147 °C |
| C=CC(=O)NC(=O)N1CC1C#N (stereo unspecified) | 158 to 160 °C |
| COc1ccc(C=NNS(=O)(=O)c2ccc(C)cc2)cc1 | 103 to 105 °C |
| CN(CCc1nc(-c2cc(C(C)(C)C)c(O)c(C(C)(C)C)c2)cs1)C(=O)OC(C)(C)C | 204 °C |
| O=S(=O)(Nc1ccc2c(OCc3ccc(-c4ccc(Cl)c(Cl)c4)cc3Cl)cccc2c1)C(F)(F)F | 169 to 170 °C |
| CC(C)OC(=O)N1c2ccccc2Sc2cc(O)c3ccccc3c21 | 205 to 206 °C |
| C#CCN1C(=O)COc2cc(-c3nn(C)c(C(F)(F)F)c3Cl)c(F)cc21 | 184 °C |
| O=C(Cl)CC(c1ccccc1)c1ccccc1 | 41 to 43 °C |
| Cc1c(Cl)c([N+](=O)[O-])cc([N+](=O)[O-])c1Cl | 131 to 132 °C |
| COc1cc(Nc2c(C#N)cnc3cc4cc(OCCN5CCC(O)CC5)c(OC)cc4cc23)c(Cl)cc1Cl | 193 to 198 °C |
| Cc1nc(C)c(C(=O)Nc2cccc3c2C(C)CC3(C)C)s1 (stereo unspecified) | 117 to 118 °C |
| CCCCNC(=O)c1ccc(Cl)c(-n2nc(CCCC)n(Cc3ccc(-c4ccccc4S(N)(=O)=O)cc3F)c2=O)c1 | 108 to 110 °C |
| CC(=O)Nc1ccc(C(=O)NCCN2[C@H](C)Cc3ccsc3[C@@H]2C)cc1 (relative stereo) | 161 to 162 °C |
| CCCCCCCCCCCCOc1ccc([N+](=O)[O-])cc1 | 51.5 to 53 °C |
| OCC1OC(n2cnc3c(NC4Cc5ccccc5C4)ncnc32)C(O)C1O (stereo unspecified) | 166 to 168 °C |
| O=C(NCCN1CCC(Oc2ccc(F)cc2Cl)CC1)c1ccc(-n2cccn2)nc1 | 109 to 110 °C |
| COc1cccc(COc2cc3c(cc2OC)C(=O)N(Cc2cccc(OC)c2)CC3)c1 | 85 to 86 °C |

| SMILES | melting point |
| --- | --- |
| O=[N+]([O-])c1ccc(C=C(Cl)Cl)o1 | 74 to 75 °C |
| CS(=O)C1CC(=O)N1CC(=O)NCc1ccccc1 (single isomer, unassigned; (-)) | 138 to 140 °C |
| CCOC(=O)c1ccc2[nH]c(C(=O)OCc3ccccc3)cc2c1 | 123 °C |
| O=C(O)c1cc([N+](=O)[O-])ccc1NCc1ccco1 | 190 to 192 °C |
| O=c1[nH]c2ccccc2n(Cc2nnn[nH]2)c1=O | 320 °C |
| C=CCOc1ccc(CCNC(=O)C(F)(F)F)cc1S(=O)(=O)N=CN(C)C | 92 to 93 °C |
| CCC(=O)Nc1c(-c2c(F)cc(F)cc2F)c(Cl)nc2ncnn12 | 162 to 165 °C |
| Oc1ccc(-c2nc(-c3cccs3)c[nH]2)cc1Cl | 152 to 153 °C |
| CCC1CC(=O)N(Cc2ccc(NC(C)=O)cc2)N=C1c1ccc(OC)c(OC2CCCC2)c1 (stereo unspecified) | 162 °C |
| Fc1ccc(-c2ncn(CCN3CCOCC3)c2-c2ccncc2)cc1 | 114 to 115 °C |
| CCCCCc1c(-c2ccc3c(Br)c(O)ccc3c2)oc2ccccc12 | 75 to 77 °C |
| N#Cc1ccc(-c2ccc(OCCN(O)C=O)cc2)cc1 | 142 to 145 °C |
| Cn1cc(-c2cccc(Cl)c2)c(=O)o1 | 131 °C |
| CCn1cc(C(=O)Nc2ccccc2)c(=O)n2c3ccccc3nc12 | 268 to 270 °C |
| CCCN(C)CCOc1ccc(-n2ccc(OCc3ccc(Cl)cn3)cc2=O)cc1 | 119 to 123 °C |
| CCc1cc(C)c(Br)c(CC)c1-c1c(O)c(C)nn(C)c1=O | 235 to 236 °C |
| COCCCOc1ccc(/C=C(\OC)C(=O)O)c(Oc2ncc(C(F)(F)F)cc2Cl)c1 | 140 to 141 °C |
| CS(=O)c1cnc2ccsc2c1O (stereo unspecified) | 271 to 273 °C |
| CCn1cc(-c2cccc(C(F)(F)F)c2)c(=O)n1-c1cccc(Br)c1 | 106 °C |
| COC(=O)C1=Cc2ccccc2OC1 | 56 to 57 °C |
| CC(C)C(C(=O)O)c1ccc(OC(F)F)c([N+](=O)[O-])c1 (stereo unspecified) | 88 to 90 °C |
| CC(C)(C)NC(=O)N(Cc1ccccc1)CC(O)C(Cc1ccccc1)NC(=O)C(CC(N)=O)NC(=O)NCc1ccccc1 (stereo unspecified) | 156 to 158 °C |
| CCOC(=O)C1=C(C)NC(c2cscn2)=NC1c1ccc(F)cc1Cl (stereo unspecified) | 140 to 142 °C |
